Publication PMC9516332 (Frontiers in Oncology, 2022)
Read-outs that look alike come from different tables or passages of the source.

Tests used:
Assay in all cases: Kinase panel profiling at 1 µmol/L (MSA or IMAP), percentage inhibition
Assay type in all cases: biochemical
[1] = target: panel of 255 wild-type kinases (Homo sapiens, UniProt P06213); conditions: read-out: %-inhibition at 1 µmol/L, INSR
[2] = target: panel of 255 wild-type kinases (Homo sapiens, UniProt P24941)
[3] = target: T1, panel of 255 wild-type kinases (Homo sapiens, UniProt P54753); conditions: read-out: %-inhibition at 1 µmol/L, EPHB3
T1 sequence (P54753 34-998): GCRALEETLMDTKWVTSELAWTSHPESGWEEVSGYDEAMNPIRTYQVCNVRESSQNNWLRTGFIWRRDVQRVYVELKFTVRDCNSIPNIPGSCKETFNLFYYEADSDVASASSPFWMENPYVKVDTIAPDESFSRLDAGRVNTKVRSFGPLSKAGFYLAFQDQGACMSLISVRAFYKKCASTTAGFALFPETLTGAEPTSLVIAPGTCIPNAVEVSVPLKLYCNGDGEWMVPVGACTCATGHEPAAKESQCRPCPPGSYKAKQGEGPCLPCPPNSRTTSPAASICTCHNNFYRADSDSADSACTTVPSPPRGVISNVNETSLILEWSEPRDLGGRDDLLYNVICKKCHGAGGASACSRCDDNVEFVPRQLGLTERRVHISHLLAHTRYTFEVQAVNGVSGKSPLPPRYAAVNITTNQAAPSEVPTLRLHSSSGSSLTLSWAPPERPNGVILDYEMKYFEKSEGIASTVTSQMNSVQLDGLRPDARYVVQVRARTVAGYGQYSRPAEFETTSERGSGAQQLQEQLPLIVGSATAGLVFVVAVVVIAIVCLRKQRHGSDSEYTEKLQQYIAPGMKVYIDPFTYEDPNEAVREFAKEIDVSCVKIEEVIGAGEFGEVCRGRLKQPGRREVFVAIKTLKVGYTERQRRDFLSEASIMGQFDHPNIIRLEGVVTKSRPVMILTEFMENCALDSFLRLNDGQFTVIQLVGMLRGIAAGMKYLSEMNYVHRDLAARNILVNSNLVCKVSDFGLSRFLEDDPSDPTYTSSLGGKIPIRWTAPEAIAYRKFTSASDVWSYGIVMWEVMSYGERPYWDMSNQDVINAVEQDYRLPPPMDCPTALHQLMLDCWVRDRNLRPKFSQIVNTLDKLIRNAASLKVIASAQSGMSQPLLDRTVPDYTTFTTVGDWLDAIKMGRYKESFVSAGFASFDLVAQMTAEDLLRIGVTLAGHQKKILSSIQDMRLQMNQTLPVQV

[4] = target: T2, panel of 255 wild-type kinases (Homo sapiens, UniProt P54762); conditions: read-out: %-inhibition at 1 µmol/L, EPHB1
T2 sequence (P54762 18-984): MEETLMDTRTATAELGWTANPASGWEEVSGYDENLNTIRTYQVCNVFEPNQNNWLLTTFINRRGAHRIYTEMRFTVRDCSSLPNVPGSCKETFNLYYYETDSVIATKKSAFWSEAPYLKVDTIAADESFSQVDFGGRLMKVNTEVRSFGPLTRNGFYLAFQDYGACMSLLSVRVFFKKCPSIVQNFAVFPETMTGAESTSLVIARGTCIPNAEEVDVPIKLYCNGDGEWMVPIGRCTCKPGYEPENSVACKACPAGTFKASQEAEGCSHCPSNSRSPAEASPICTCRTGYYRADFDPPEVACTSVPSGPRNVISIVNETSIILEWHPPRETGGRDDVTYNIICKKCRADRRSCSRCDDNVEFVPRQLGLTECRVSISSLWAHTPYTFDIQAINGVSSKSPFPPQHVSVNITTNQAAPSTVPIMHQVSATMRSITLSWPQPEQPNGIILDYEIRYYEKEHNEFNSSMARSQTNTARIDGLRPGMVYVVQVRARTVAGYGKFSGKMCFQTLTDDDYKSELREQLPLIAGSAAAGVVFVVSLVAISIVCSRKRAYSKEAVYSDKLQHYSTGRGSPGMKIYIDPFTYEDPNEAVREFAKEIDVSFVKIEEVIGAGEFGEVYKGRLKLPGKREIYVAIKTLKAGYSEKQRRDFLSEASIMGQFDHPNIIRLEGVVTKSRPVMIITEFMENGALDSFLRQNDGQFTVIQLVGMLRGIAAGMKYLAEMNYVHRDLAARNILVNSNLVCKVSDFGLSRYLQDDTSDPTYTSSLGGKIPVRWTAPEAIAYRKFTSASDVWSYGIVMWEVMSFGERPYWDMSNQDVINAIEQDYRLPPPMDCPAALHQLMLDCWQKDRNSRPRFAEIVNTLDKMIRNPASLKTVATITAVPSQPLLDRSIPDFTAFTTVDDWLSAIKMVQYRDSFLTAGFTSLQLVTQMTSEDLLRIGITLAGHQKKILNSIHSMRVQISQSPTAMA

[5] = target: panel of 255 wild-type kinases (Homo sapiens, UniProt Q16288); conditions: read-out: %-inhibition at 1 µmol/L, TRKC
[6] = target: T3, panel of 255 wild-type kinases (Homo sapiens, UniProt Q96PF2); conditions: read-out: %-inhibition at 1 µmol/L, TSSK2
T3 sequence (Q96PF2 1-358): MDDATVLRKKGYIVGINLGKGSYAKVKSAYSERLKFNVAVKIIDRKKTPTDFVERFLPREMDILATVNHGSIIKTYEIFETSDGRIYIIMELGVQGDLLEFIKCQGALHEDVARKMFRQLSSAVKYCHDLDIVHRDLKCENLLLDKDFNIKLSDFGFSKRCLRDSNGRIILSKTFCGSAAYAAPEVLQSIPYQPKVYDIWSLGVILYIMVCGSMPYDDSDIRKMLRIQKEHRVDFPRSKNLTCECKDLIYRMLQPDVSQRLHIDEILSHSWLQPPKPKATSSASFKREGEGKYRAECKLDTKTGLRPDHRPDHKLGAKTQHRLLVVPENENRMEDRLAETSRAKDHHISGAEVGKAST

[7] = system: panel of 255 wild-type kinases
[8] = kinase INSR, 1 µmol/L single concentration
[9] = CDK2/CycA2 kinase assay, 1 µmol/L single concentration, read-out: %-inhibition CDK2/CycA2
[10] = CDK2/CycE1 kinase assay, 1 µmol/L single concentration, read-out: %-inhibition CDK2/CycE1
[11] = kinase EPHB3, 1 µmol/L single concentration
[12] = kinase EPHB1, 1 µmol/L single concentration
[13] = kinase TRKC, 1 µmol/L single concentration
[14] = kinase TSSK2, 1 µmol/L single concentration
[15] = kinase FYN [isoform b], 1 µmol/L single concentration
[16] = kinase LYNb, 1 µmol/L single concentration
[17] = kinase PKCβ2, 1 µmol/L single concentration
[18] = kinase SRM, 1 µmol/L single concentration

| SMILES | inhibition at 1 µM [1, 8] | inhibition at 1 µM [2, 9] | inhibition at 1 µM [2, 10] | inhibition at 1 µM [3, 11] | inhibition at 1 µM [4, 12] | inhibition at 1 µM [5, 13] | inhibition at 1 µM [6, 14] | %-inhibition at 1 µmol/L, FYN [isoform b] [7, 15] | %-inhibition at 1 µmol/L, LYNb [7, 16] | %-inhibition at 1 µmol/L, PKCβ2 [7, 17] | %-inhibition at 1 µmol/L, SRM [7, 18] | also measured |
| --- | --- | --- | --- | --- | --- | --- | --- | --- | --- | --- | --- | --- |
| Cc1nc(NC(=O)N2CCC[C@H]2C(N)=O)sc1-c1ccnc(C(C)(C)C(F)(F)F)c1 [alpelisib] | -2.57% | -2.39% | -10% | -0.582% | 8% | 2.52% | -6% | -5.63% | 4.67% | 2.32% | 1% | – |
| Cn1cc(-c2cc3c(N4CCN(c5ncc([C@@](C)(N)c6ccc(F)cc6)cn5)CC4)ncnn3c2)cn1 [avapritinib] | 4.71% | -0.664% | -37% | 3% | 65% | 57% | 1.35% | 3% | 83% | -0.278% | 0.441% | – |
| Cn1cnc2c(F)c(Nc3ccc(Br)cc3F)c(C(=O)NOCCO)cc21 [binimetinib] | 6% | 2.3% | -14% | 3.28% | 2% | -0.843% | -5% | 4% | 4.22% | -1.88% | -1.11% | – |
| CNC(=O)c1ccc(-c2cnc3ncc(Cc4ccc5ncccc5c4)n3n2)cc1F [capmatinib] | – | – | – | – | – | – | – | – | – | – | – | inhibition at 1 µM [1]: 4.5%; inhibition at 1 µM ([2]; read-out: %-inhibition CDK2/CycA2): 1.63%; inhibition at 1 µM ([2]; read-out: %-inhibition CDK2/CycE1): -47%; inhibition at 1 µM [3]: 0.192%; inhibition at 1 µM [4]: -1.63%; inhibition at 1 µM [5]: 19%; inhibition at 1 µM [6]: -3.31%; %-inhibition at 1 µmol/L, FYN [isoform b] [7]: -1.2%; %-inhibition at 1 µmol/L, LYNb [7]: 0.305%; %-inhibition at 1 µmol/L, PKCβ2 [7]: -2%; %-inhibition at 1 µmol/L, SRM [7]: -0.916% |
| COc1cc2ncnc(Nc3ccc(F)c(Cl)c3)c2cc1NC(=O)/C=C/CN1CCCCC1 [dacomitinib] | 1.81% | -13% | -16% | 2% | 45% | -0.0882% | 1.2% | 37% | 74% | 5.44% | 1.79% | – |
| C[C@H](Nc1ncnc2nc[nH]c12)c1cc2cccc(Cl)c2c(=O)n1-c1ccccc1 [duvelisib] | -0.398% | -0.854% | -11% | 4% | 10% | 2% | -1.37% | 0.6% | 3% | 1.61% | 4% | inhibition of profiled kinases in biochemical assays ([7]; 1 µmol/L inhibitor): did not inhibit FLT3 or any of the other profiled tyrosine or serine/threonine kinases |
| COC(=O)N[C@@H](C)CNc1nccc(-c2cn(C(C)C)nc2-c2cc(Cl)cc(NS(C)(=O)=O)c2F)n1 [encorafenib] | 9% | 5.57% | -9% | 4% | 3% | -0.54% | -2.44% | 4.62% | 4% | 2.15% | 85% | – |
| CN1CCN(c2ccc(C(=O)Nc3n[nH]c4ccc(Cc5cc(F)cc(F)c5)cc34)c(NC3CCOCC3)c2)CC1 [entrectinib] | 94% | 20% | 11% | 8% | 62% | 100% | -7% | – | – | – | – | %-inhibition at 1 µmol/L, FYN [isoform b] [7]: 95%; %-inhibition at 1 µmol/L, LYNb [7]: 72%; %-inhibition at 1 µmol/L, PKCβ2 [7]: 14%; %-inhibition at 1 µmol/L, SRM [7]: 72%; number of the 255 profiled kinases inhibited by more than 50% [7]: 75 |
| CCc1nc(C(N)=O)c(Nc2ccc(N3CCC(N4CCN(C)CC4)CC3)c(OC)c2)nc1NC1CCOCC1 [gilteritinib] | 100% | 27% | 17% | 8% | 87% | 100% | 55% | 86% | 84% | 31% | 23% | – |
| C[C@H]1Oc2cc(cnc2N)-c2c(nn(C)c2C#N)CN(C)C(=O)c2ccc(F)cc21 [lorlatinib] | 64% | 1.87% | -6.33% | 13% | 68% | – | 56% | 4% | 22% | 4% | 59% | – |
